Data set [1] in a line: stability of BD2K1 in water (deuterium oxide), 500 MHz NMR. Format: physicochemical. The note with it: for After One Week (share of ingredient in the solution by NMR) / Initially % (share of ingredient in the solution by NMR): BD2K1 in deuterium oxide, room temperature about 27° C. As to the method: A sample of BD2K1 made according to Example 1. Five mcg of the sample was dissolved in one ml of deuterium oxide and the solution was stored in a tightly capped screw capped tube maintained at room temperature which is about 27° C. Deuterium was used as the water source because it facilitates the NMR determinations of chemical configuration. The solution sample was scanned by 500 MHz NMR initially and after one week.

Data set [2] in a line: stabilizing effect of glucose added to BD2K1-deuterium oxide mixtures, NMR. In kind it is physicochemical. The note with it: for level at which di-β-glucosamine equilibrates: 20% or more glucose in the mixture, in water, first week; for percent of total composition in the stationary equilibrium: 95% BD2K1 sample in water without glucose, one week. As to the method: This experiment measures the stabilizing effect of glucose when added to the BD2K1 -deuterium oxide mixtures at room temperature. Various amounts of α-D-glucose were added to the similar starting mixtures in Example 3 and the NMRs were recorded to determine the percent changes of the total composition as a function of time.

Data set [3] can be described thus: storage of BD2K1 in a desiccated container. In kind it is physicochemical. The note with it: room temperature.
Data set [4] is described as follows: general statements on stability at alkaline pH and in body fluids. In kind it is physicochemical.
In data set [5] the test system is mice immunologically sensitive to a specific water soluble chemical. As to the kind of experiment: Inflammatory Controlling System (ICS) assay. In kind it is in vivo. The procedure: An example of BD2K1 being synthesized in another area than in the intestine is seen in a mouse study which was conducted involving the Inflammatory Controlling System (ICS). ICS assay is done in mice immunologically sensitive to a specific water soluble chemical. When these mice are challenged intravenously with a sublethal dose of the chemical, below the toxicity level for non-sensitive mice, they immediately respond with an adverse immune reaction. Result is an acute pancreatitis, shock and death. […] The assay involves glucose controls which are administrated intraperitoneally at three times. The first is early (i.e., 3 hours) before the antigen challenge. The second is one hour before the challenge and the third is at zero hour (i.e., when the challenge is done). […] However, for the case where glucose was injected at the zero hour and one hour before the challenge there was no effect.
A further study in mice was conducted to test the effect of glucose in mice by various routes of administration in the ICS assay test. The glucose was administrated by four different routes: intraperitoneal, intravenous, subcutaneous and oral.

The nature of data set [6]: tolerability statements for BD2K (topical, parenteral use). Format: in vivo.

The structures appear in SMILES notation.

Take `OC[C@H]1O[C@@H](N[C@@H]2O[C@H](CO)[C@@H](O)[C@H](O)[C@H]2O)[C@H](O)[C@@H](O)[C@@H]1O` [BD2K1, di-Beta-D-glucopyranosylamine]: in data set [1], the “After One Week (share of ingredient in the solution by NMR)” value (“After One Week” below) is given as 62% and the “Initially % (share of ingredient in the solution by NMR)” value (“Initially %” below) came out at 92%. Moreover, the “reduction of BD2K1 to the starting material glucose” value in data set [1] (by adding water) was determined as 33%. In data set [2], the “level at which di-β-glucosamine equilibrates” value is recorded as 80% and the “percent of total composition in the stationary equilibrium” value is given as 62%. For the same compound, in data set [2] (listed as di-β-glucosamine), the “level at which di-β-glucosamine equilibrates” value is given as “about 80%”. Moreover, the “time the equilibrium level is kept” value in data set [2] (20% or more glucose, sealed container) was “at least five years”. Moreover, in data set [3], the decomposition on storage entry is given as “does not decompose”. The “stability in body fluids” value in data set [4] (body fluids) is recorded as “not very stable”. The “stability at high alkaline pH” value in data set [4] (high alkaline pH) was “extremely stable”. In addition, the “protection against the acute pancreatitis” value in data set [5] (BD2K1 controls of the route study) is “good protection”. In data set [5] (sensitive mice, intravenous sublethal antigen challenge), the “protection from death on challenge” value is listed as “protects these sensitive mice from death”. In data set [6] (applied topically), the irritation result is reported as “without any irritation”. In addition, the “IgE levels in patient sera” value in data set [6] (patient sera) was “without elevating IgE levels”. For the same compound, the toxicity entry in data set [6] (used parentally) is “no indication of toxicity”.
As to `c1cnccn1` [pyrazine], in data set [1], the “After One Week” value is 1% and the “Initially %” value was found to be 1%. Moreover, the “percent of total composition in the stationary equilibrium” value in data set [2] is “less than 1%”.
For the compound `OC[C@H]1O[C@H](O)[C@H](O)[C@@H](O)[C@@H]1O` [α-glucose], in data set [1], the “After One Week” value worked out at 10% and the “Initially %” value is 0%.
For `OC[C@H]1O[C@@H](O)[C@H](O)[C@@H](O)[C@@H]1O` [β-glucose] the same measures were 18% and 0%.

The record behind these values is US6770635B1, “Method for medicating the inflammatory controlling system and adverse inflammatory reactions and for making compounds for treating the pathology of adverse inflammatory reactions” (Pharos Pharmaceuticals, priority 1995, dated 2004).
